{"source": "ChEMBL document CHEMBL4840352", "about": "(J Med Chem, 2021)", "key": {"[1]": {"molecular_target": "Mast/stem cell growth factor receptor Kit (Homo sapiens) (UniProt P10721)", "sequence (P10721 whole entry)": "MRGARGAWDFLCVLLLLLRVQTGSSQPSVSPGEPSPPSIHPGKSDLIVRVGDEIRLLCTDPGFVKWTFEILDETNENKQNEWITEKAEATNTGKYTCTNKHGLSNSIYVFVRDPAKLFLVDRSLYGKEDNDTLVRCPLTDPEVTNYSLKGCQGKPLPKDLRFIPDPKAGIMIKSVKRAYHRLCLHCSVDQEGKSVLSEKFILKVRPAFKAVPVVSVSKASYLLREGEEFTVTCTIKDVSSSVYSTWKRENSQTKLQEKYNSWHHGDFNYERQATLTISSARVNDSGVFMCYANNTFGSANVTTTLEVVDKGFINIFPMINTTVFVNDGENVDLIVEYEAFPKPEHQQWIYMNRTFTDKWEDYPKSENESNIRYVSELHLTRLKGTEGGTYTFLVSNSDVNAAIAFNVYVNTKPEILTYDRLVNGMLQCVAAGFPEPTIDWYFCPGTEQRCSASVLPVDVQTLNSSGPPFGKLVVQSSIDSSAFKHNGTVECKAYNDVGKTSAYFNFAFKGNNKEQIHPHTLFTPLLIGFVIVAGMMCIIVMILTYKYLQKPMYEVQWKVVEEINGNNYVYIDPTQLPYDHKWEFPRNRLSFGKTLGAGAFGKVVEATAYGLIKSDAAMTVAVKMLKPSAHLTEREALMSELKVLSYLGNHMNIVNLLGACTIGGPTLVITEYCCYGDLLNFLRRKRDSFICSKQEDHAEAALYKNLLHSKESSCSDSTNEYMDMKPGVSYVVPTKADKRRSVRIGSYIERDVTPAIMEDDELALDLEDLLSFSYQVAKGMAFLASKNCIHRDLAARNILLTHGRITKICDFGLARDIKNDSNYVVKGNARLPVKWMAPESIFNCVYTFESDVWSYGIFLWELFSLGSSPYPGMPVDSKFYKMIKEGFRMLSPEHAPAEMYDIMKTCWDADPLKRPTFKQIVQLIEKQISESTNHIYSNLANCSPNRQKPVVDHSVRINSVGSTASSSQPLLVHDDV", "test": "Inhibition of KIT in human MV4-11 cells assessed as reduction in STAT3 phosphorylation at 5 to 25 nM after 24 hrs by Western blot analysis", "type": "cell-based", "conditions": "dose 5-25 nM"}, "MOLM-13 [2]": {"test_system": "MOLM-13", "test": "Induction of apoptosis in human MOLM-13 cells after 48 hrs by Annexin-V/PI staining based flow cytometry", "type": "functional, cell-based", "conditions": "dose 1.25-10 nM"}, "[3]": {"molecular_target": "Mast/stem cell growth factor receptor Kit (Homo sapiens) (UniProt P10721)", "test": "Inhibition of KIT in human MOLM-13 cells assessed as reduction in STAT3 phosphorylation at 5 to 25 nM after 24 hrs by Western blot analysis", "type": "cell-based", "conditions": "dose 5-25 nM"}, "[4]": {"molecular_target": "Mast/stem cell growth factor receptor Kit (Homo sapiens) (UniProt P10721)", "test": "Induction of KIT degradation in human MV4-11 cells at 0 to 25 nM after 24 hrs by Western blot analysis", "type": "cell-based", "conditions": "dose 0-25 nM"}, "[5]": {"molecular_target": "Serine/threonine-protein kinase Chk1 (Homo sapiens) (UniProt O14757)", "test": "Inhibition of CHK1 (unknown origin) at 1000 nM relative to control"}, "[6]": {"molecular_target": "Tyrosine-protein kinase receptor UFO (Homo sapiens) (UniProt P30530)", "conditions": "dose 1000.0 nM", "description": "Inhibition of AXL (unknown origin) at 1000 nM relative to control"}, "MV4-11 [7]": {"test_system": "MV4-11", "test": "Reduction in intracellular ROS level in human MV4-11 cells measured after 12 hrs by DCFH-DA probe based flow cytometry", "type": "functional, cell-based", "conditions": "dose 25-200 nM"}, "[8]": {"molecular_target": "RAC-alpha serine/threonine-protein kinase (Homo sapiens) (UniProt P31749)", "sequence (P31749 whole entry)": "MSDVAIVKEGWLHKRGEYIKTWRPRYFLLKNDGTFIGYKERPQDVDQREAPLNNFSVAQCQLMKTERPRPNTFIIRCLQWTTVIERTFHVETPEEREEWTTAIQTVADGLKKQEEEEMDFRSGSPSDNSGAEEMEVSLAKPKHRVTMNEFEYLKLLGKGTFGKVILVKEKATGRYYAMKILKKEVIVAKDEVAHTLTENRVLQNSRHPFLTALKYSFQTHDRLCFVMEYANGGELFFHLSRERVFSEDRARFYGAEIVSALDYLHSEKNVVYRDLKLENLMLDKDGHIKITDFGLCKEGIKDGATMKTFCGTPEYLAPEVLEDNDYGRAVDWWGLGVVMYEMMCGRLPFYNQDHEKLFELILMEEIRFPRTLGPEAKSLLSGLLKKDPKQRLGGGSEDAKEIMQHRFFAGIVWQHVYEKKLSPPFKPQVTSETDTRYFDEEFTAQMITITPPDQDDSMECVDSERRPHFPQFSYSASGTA", "test": "Inhibition of AKT1 (unknown origin) at 1000 nM relative to control"}, "[9]": {"molecular_target": "Glycogen synthase kinase-3 alpha (Homo sapiens) (UniProt P49840)", "sequence (P49840 2-483 limits assumed)": "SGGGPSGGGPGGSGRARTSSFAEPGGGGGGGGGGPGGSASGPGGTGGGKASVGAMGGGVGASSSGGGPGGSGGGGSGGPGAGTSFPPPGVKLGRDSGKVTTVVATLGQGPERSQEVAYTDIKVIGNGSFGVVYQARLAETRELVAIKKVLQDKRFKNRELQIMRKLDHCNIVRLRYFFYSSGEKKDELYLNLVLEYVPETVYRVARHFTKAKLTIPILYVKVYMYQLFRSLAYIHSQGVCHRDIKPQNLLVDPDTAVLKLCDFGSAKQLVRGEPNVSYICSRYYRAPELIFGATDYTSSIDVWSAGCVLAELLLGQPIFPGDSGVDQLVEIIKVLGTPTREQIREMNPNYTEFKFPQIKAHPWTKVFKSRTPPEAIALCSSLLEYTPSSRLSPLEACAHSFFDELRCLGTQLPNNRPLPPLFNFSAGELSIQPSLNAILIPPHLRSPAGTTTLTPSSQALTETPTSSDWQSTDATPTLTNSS", "test": "Inhibition of GSK3alpha (unknown origin) at 1000 nM relative to control"}, "[10]": {"molecular_target": "Tyrosine-protein kinase JAK3 (Homo sapiens) (UniProt P52333)", "test": "Inhibition of JAK3 (unknown origin) at 1000 nM relative to control"}, "[11]": {"molecular_target": "Mitogen-activated protein kinase 1 (Homo sapiens) (UniProt P28482)", "test": "Inhibition of ERK2 (unknown origin) at 1000 nM relative to control"}, "[12]": {"molecular_target": "Casein kinase I isoform alpha-like (Homo sapiens) (UniProt Q8N752)", "sequence (Q8N752 whole entry, canonical isoform)": "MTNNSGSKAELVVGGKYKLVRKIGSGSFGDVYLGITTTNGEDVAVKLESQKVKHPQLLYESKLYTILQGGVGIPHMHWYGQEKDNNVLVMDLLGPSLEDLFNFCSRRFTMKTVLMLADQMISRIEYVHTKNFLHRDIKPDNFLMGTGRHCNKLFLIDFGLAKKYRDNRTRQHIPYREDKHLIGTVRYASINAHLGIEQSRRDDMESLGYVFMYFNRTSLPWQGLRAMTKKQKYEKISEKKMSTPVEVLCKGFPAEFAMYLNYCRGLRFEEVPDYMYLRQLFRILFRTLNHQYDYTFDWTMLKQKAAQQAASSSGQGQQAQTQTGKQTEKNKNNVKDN", "test": "Inhibition of CK1A1 (unknown origin) at 1000 nM relative to control"}, "[13]": {"molecular_target": "Platelet-derived growth factor receptor beta (Homo sapiens) (UniProt P09619)", "sequence (P09619 whole entry)": "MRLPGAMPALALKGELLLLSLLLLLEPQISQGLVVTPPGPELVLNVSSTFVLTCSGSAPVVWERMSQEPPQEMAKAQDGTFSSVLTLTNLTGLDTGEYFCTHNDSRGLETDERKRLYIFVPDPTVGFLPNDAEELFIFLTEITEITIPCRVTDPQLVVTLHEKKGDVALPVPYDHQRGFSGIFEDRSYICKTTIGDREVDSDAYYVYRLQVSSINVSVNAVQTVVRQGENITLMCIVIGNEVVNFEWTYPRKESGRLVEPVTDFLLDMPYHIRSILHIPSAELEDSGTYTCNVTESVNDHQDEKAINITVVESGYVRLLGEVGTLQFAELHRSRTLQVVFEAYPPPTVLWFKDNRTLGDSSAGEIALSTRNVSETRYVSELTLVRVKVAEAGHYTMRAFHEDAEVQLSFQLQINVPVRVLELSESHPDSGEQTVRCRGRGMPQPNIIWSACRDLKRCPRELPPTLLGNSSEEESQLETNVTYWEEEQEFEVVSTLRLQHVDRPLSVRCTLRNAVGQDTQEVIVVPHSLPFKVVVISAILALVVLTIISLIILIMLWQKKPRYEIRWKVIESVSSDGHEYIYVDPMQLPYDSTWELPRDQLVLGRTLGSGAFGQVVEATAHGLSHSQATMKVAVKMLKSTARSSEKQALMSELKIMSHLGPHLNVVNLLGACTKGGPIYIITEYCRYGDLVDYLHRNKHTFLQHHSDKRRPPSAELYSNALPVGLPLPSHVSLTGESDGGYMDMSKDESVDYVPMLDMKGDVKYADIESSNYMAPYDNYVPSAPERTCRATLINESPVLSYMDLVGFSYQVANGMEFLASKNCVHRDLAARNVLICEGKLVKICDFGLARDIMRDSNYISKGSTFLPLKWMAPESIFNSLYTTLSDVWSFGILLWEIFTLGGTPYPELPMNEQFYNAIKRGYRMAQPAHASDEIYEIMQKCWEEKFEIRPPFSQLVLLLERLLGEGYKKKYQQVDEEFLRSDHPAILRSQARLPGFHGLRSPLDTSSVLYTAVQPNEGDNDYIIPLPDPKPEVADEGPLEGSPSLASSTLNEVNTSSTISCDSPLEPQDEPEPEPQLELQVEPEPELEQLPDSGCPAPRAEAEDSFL", "test": "Induction of PDGFR degradation in human MOLM-13 cells at 0 to 25 nM after 24 hrs by Western blot analysis", "type": "cell-based", "conditions": "dose 0-25 nM"}, "[14]": {"molecular_target": "Mitogen-activated protein kinase kinase kinase kinase 1 (Homo sapiens) (UniProt Q92918)", "test": "Inhibition of HPK1 (unknown origin) at 1000 nM relative to control"}, "[15]": {"molecular_target": "Rho-associated protein kinase 1 (Homo sapiens) (UniProt Q13464)", "test": "Inhibition of ROCK1 (unknown origin) at 1000 nM relative to control"}, "[16]": {"molecular_target": "Fibroblast growth factor receptor 1 (Homo sapiens) (UniProt P11362)", "conditions": "dose 1000.0 nM", "description": "Inhibition of FGFR1 (unknown origin) at 1000 nM relative to control"}, "MV4-11 [17]": {"test_system": "MV4-11", "test": "Induction of apoptosis in human MV4-11 cells assessed as upregulation of cleaved caspase-3 level at 15 nM by Western blot analysis", "type": "functional, cell-based", "conditions": "time 0-12 hrs, TDE = time-dependent effect"}, "MV4-11 [18]": {"test_system": "MV4-11", "test": "Induction of apoptosis in human MV4-11 cells assessed as downregulation of Bcl-2 level at 15 nM measured upto 12 hrs by Western blot analysis", "type": "functional, cell-based", "conditions": "time hrs <=12"}, "[19]": {"molecular_target": "Receptor-type tyrosine-protein kinase FLT3 (Homo sapiens) (UniProt P36888)", "conditions": "dose 1000.0 nM", "description": "Inhibition of FLT3 (unknown origin) at 1000 nM relative to control"}, "[20]": {"molecular_target": "Mitogen-activated protein kinase 8 (Homo sapiens) (UniProt P45983)", "test": "Inhibition of JNK1 (unknown origin) at 1000 nM relative to control"}, "[21]": {"molecular_target": "ALK tyrosine kinase receptor (Homo sapiens) (UniProt Q9UM73)", "sequence (Q9UM73 19-1620 limits assumed)": "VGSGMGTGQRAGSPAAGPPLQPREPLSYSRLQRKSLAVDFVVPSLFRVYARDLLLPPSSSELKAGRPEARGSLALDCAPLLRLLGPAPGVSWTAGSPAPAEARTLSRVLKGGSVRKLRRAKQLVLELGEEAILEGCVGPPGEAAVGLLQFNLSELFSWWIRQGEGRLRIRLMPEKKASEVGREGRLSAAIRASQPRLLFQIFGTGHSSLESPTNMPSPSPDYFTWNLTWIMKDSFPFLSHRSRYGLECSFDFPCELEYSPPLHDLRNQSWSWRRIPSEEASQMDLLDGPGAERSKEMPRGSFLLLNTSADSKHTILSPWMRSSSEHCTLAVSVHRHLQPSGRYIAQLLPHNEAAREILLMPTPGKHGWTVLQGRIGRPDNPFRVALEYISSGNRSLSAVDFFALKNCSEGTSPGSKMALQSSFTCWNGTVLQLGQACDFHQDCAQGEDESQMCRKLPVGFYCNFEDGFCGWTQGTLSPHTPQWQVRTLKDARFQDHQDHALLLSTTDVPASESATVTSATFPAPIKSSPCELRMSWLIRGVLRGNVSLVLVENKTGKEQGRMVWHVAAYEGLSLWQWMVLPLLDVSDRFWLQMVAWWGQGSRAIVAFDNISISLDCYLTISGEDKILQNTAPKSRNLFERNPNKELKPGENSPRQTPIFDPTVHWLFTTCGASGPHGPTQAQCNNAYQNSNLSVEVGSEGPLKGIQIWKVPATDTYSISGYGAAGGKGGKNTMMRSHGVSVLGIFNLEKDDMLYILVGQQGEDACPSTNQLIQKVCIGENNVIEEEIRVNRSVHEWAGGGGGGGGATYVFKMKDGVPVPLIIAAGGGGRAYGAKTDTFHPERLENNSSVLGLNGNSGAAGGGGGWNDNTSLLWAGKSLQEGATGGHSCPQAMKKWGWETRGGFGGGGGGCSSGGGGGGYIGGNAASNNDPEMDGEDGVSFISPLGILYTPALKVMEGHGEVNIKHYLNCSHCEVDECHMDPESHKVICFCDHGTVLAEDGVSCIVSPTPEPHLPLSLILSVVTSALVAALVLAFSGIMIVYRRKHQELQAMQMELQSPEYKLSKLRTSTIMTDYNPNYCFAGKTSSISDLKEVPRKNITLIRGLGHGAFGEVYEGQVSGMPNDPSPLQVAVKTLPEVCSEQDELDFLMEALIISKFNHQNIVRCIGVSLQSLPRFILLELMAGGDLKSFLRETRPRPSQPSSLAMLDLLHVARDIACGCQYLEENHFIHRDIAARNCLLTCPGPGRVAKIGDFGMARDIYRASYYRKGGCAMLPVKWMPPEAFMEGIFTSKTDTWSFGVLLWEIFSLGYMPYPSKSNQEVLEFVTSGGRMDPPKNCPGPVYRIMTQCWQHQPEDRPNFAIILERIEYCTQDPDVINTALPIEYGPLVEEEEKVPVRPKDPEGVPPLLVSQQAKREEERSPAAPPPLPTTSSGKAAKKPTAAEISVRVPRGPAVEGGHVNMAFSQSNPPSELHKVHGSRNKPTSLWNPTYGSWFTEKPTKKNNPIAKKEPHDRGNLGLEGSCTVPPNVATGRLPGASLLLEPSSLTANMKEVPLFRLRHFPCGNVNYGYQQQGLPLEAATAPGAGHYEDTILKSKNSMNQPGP", "test": "Inhibition of ALK (unknown origin) at 1000 nM relative to control"}, "[22]": {"molecular_target": "Receptor tyrosine-protein kinase erbB-4 (Homo sapiens) (UniProt Q15303)", "conditions": "dose 1000.0 nM", "description": "Inhibition of HER4 (unknown origin) at 1000 nM relative to control"}, "[23]": {"molecular_target": "Mitogen-activated protein kinase 14 (Homo sapiens) (UniProt Q16539)", "conditions": "dose 1000.0 nM", "description": "Inhibition of p38alpha (unknown origin) at 1000 nM relative to control"}, "[24]": {"test_system": "Receptor-type tyrosine-protein kinase FLT3 (Homo sapiens), P36888 [UNDEFINED MUTATION]", "test": "Induction of FLT3-ITD degradation in human MV4-11 cells at 20 nM pretreated with pomalidomide for 2 hrs followed compound addition for 6 hrs by Western blot analysis", "type": "cell-based"}, "[25]": {"test_system": "Receptor-type tyrosine-protein kinase FLT3 (Homo sapiens), P36888 [D835Y]", "conditions": "dose 1000.0 nM", "description": "Inhibition of FLT3 D835Y mutant (unknown origin) at 1000 nM relative to control"}, "[26]": {"molecular_target": "Receptor-type tyrosine-protein kinase FLT3 (Homo sapiens) (UniProt P36888)", "test": "Inhibition of FLT3 in human MV4-11 cells assessed as reduction in FLT3 phosphorylation at 15 nM by Western blot analysis", "type": "cell-based", "conditions": "time 0-12 hrs, TDE = time-dependent effect"}, "[27]": {"molecular_target": "Mitogen-activated protein kinase kinase kinase 14 (Homo sapiens) (UniProt Q99558)", "test": "Inhibition of NIK (unknown origin) at 1000 nM relative to control"}, "[28]": {"molecular_target": "Maternal embryonic leucine zipper kinase (Homo sapiens) (UniProt Q14680)", "test": "Inhibition of MELK (unknown origin) at 1000 nM relative to control"}, "MV4-11 [29]": {"test_system": "MV4-11", "test": "Induction of apoptosis in human MV4-11 cells after 48 hrs by Annexin-V/PI staining based flow cytometry", "type": "functional, cell-based", "conditions": "dose 1.25-10 nM"}, "MOLM-13 [30]": {"test_system": "MOLM-13", "test": "Induction of apoptosis in human MOLM-13 cells assessed as upregulation of cleaved caspase-3 level at 15 nM by Western blot analysis", "type": "functional, cell-based", "conditions": "time 0-12 hrs, TDE = time-dependent effect"}, "[31]": {"test_system": "Receptor-type tyrosine-protein kinase FLT3 (Homo sapiens), P36888 [UNDEFINED MUTATION]", "test": "Induction of FLT3-ITD degradation in human MV4-11 cells at 20 nM pretreated with dov for 2 hrs followed compound addition for 6 hrs by Western blot analysis", "type": "cell-based"}, "[32]": {"molecular_target": "Mast/stem cell growth factor receptor Kit (Homo sapiens) (UniProt P10721)", "test": "Inhibition of KIT in human MOLM-13 cells assessed as reduction in PI3K phosphorylation at 5 to 25 nM after 24 hrs by Western blot analysis", "type": "cell-based", "conditions": "dose 5-25 nM"}, "[33]": {"molecular_target": "Mitogen-activated protein kinase 3 (Homo sapiens) (UniProt P27361)", "test": "Inhibition of ERK1 (unknown origin) at 1000 nM relative to control"}, "[34]": {"molecular_target": "Receptor tyrosine-protein kinase erbB-2 (Homo sapiens) (UniProt P04626)", "test": "Inhibition of HER2 (unknown origin) at 1000 nM relative to control"}, "MOLM-13 [35]": {"test_system": "MOLM-13", "test": "Induction of apoptosis in human MOLM-13 cells assessed as downregulation of Bcl-2 level at 15 nM measured upto 12 hrs by Western blot analysis", "type": "functional, cell-based", "conditions": "time hrs <=12"}, "[36]": {"molecular_target": "Vascular endothelial growth factor receptor 2 (Homo sapiens) (UniProt P35968)", "conditions": "dose 1000.0 nM", "description": "Inhibition of KDR (unknown origin) at 1000 nM relative to control"}, "[37]": {"test_system": "Receptor-type tyrosine-protein kinase FLT3 (Homo sapiens), P36888 [UNDEFINED MUTATION]", "test": "Induction of FLT3-ITD degradation in human MV4-11 cells assessed as accumulation of ubiquitinated FLT3-ITD at 15 nM preincubated for 4 hrs followed by MG132 addition for 2 hrs by immunoprecipitation assay", "type": "cell-based", "conditions": "time 6.0 hrs"}}, "note": "The source made the active and inactive calls. The rule behind the calls is not given here."}
{"smiles": "Nc1c(-c2nc3cc(N4CCN(C(=O)CCCCCNc5cccc6c5C(=O)N(C5CCC(=O)NC5=O)C6=O)CC4)ccc3[nH]2)c(=O)[nH]c2cccc(F)c12", "note": "(configuration not stated)", "values": [{"measurement": "inhibition", "setting": "[1]", "result": "Active"}, {"measurement": "Activity", "setting": "MOLM-13 [2]", "result": "Dose-Dependent Effect"}, {"measurement": "inhibition", "setting": "[3]", "result": "Active"}, {"measurement": "Activity", "setting": "[4]", "result": "Active"}, {"measurement": "inhibition", "setting": "[5]", "result": 26, "unit": "%"}, {"measurement": "inhibition", "setting": "[6]", "result": 20, "unit": "%"}, {"measurement": "Activity", "setting": "MV4-11 [7]", "result": "Dose-Dependent Effect"}, {"measurement": "inhibition", "setting": "[8]", "result": 7, "unit": "%"}, {"measurement": "inhibition", "setting": "[9]", "result": 3, "unit": "%"}, {"measurement": "inhibition", "setting": "[10]", "result": 1, "unit": "%"}, {"measurement": "inhibition", "setting": "[11]", "result": 38, "unit": "%"}, {"measurement": "inhibition", "setting": "[12]", "result": 1, "unit": "%"}, {"measurement": "Activity", "setting": "[13]", "result": "Active"}, {"measurement": "inhibition", "setting": "[14]", "result": 49, "unit": "%"}, {"measurement": "inhibition", "setting": "[15]", "result": 4, "unit": "%"}, {"measurement": "inhibition", "setting": "[16]", "result": 17, "unit": "%"}, {"measurement": "Activity", "setting": "MV4-11 [17]", "result": "Tde"}, {"measurement": "Activity", "setting": "MV4-11 [18]", "result": "Active"}, {"measurement": "inhibition", "setting": "[19]", "result": 93, "unit": "%"}, {"measurement": "inhibition", "setting": "[20]", "result": -8, "unit": "%"}, {"measurement": "inhibition", "setting": "[21]", "result": 25, "unit": "%"}, {"measurement": "inhibition", "setting": "[22]", "result": 14, "unit": "%"}, {"measurement": "inhibition", "setting": "[23]", "result": 12, "unit": "%"}, {"measurement": "Activity", "setting": "[24]", "result": "inactive"}, {"measurement": "inhibition", "setting": "[25]", "result": 95, "unit": "%"}, {"measurement": "inhibition", "setting": "[26]", "result": "Tde"}, {"measurement": "inhibition", "setting": "[27]", "result": 0, "unit": "%"}, {"measurement": "inhibition", "setting": "[28]", "result": 11, "unit": "%"}, {"measurement": "Activity", "setting": "MV4-11 [29]", "result": "Dose-Dependent Effect"}, {"measurement": "Activity", "setting": "MOLM-13 [30]", "result": "Tde"}, {"measurement": "Activity", "setting": "[31]", "result": "inactive"}, {"measurement": "inhibition", "setting": "[32]", "result": "Active"}, {"measurement": "inhibition", "setting": "[33]", "result": 4, "unit": "%"}, {"measurement": "inhibition", "setting": "[34]", "result": 50, "unit": "%"}, {"measurement": "Activity", "setting": "MOLM-13 [35]", "result": "Active"}, {"measurement": "inhibition", "setting": "[36]", "result": 69, "unit": "%"}, {"measurement": "Activity", "setting": "[37]", "result": "Active"}]}
